Laboratory results taken from paper PMC8997913, “Lichen Secondary Metabolites Inhibit the Wnt/β-Catenin Pathway in Glioblastoma Cells and Improve the Anticancer Effects of Temozolomide” (Cells, 2022).
Entries after “also recorded” stand apart in the source; their conditions may differ.

Columns and labels:
[1] = Parallel artificial membrane permeability assay for the blood-brain barrier (PAMPA-BBB); type: in vitro ADME; conditions: pH 7.4, 4 h, 37 °C; for Papp at 4 h, 24.75 µg/mL: mean ± SEM, n = 3, Pe > 1.5 high, < 1.5 low permeation predicted, read-out: Pe × 10^−6
Procedure: The parallel artificial membrane permeability assay (PAMPA) for the blood-brain barrier (BBB) (Pion Inc., Billerica, MA, USA) was used to analyze whether the lichen secondary metabolites tested in this study were able to cross the BBB. The stock solutions (5 mg/mL) of tested compounds were prepared using DMSO. Next, the donor solution (24.75 μg/mL) using Prisma buffer (pH = 7.4; Prisma HT, Pion Inc., Billerica, MA, USA) were made. Firstly, 180 μL of the donor solution were added to the donor wells. Then the filter membranes were coated with 5 μL BBB-1 lipid solution (Pion Inc., Billerica, MA, USA) and the acceptor wells were filled with 200 μL BSB (Brain Sink Buffer, Pion Inc., Billerica, MA, USA). The plates were sandwiched together and incubated for 4 h at 37 °C (Thermo Scientific MaxQ 4450, Waltham, MA, USA). The results were determined by spectroscopic analysis (Multiskan GO microplate reader, Waltham, MA, USA), with the appropriate wavelength for a given compound (240 nm for […] salazinic acid, 250 nm for atranorin and squamatic acid, 263 nm for physodic acid, and 270 nm for lecanoric acid). […] Pe is the effective permeability coefficient (cm/s), VD-donor volume, VA-acceptor volume, Ceq-equilibrium concentration, Ceq=CD×VD+CA×VA/VD+VA , S-membrane area, and t-incubation time (in seconds). […] Samples were analyzed in triplicate, and the average was reported.

U-138 MG cells = test: MTT test, U-138 MG; type: cell-based, human; conditions: 48 h; for IC50: Homo sapiens, U138-MG, three independent experiments, read-out: IC50 [uM] ± SEM U-138 MG
Procedure: Three human GBM cell lines were used in this study, i.e., A-172 (ATCC-CRL-1620), T98G (92090213), and U-138 MG (ATCC-HTB-16). The A-172 and U-138 MG cell lines were purchased from the American Type Culture Collection (ATCC), whereas the T98G cell line was obtained from the European Collection of Authenticated Cell Cultures (ECACC). It has been confirmed by us that O^6-methylguanine-DNA methyltransferase (MGMT), the key factor determining the response to alkylating agents, such as TMZ, is expressed in T98G and U-138 MG cells, whereas in A-172 the expression of MGMT is silenced by promoter methylation. Therefore, the cell lines differ in terms of TMZ sensitivity; A-172 is regarded as TMZ sensitive, whereas T98G and U-138 MG are TMZ resistant.
The cells were grown as monolayers (2D cell culture) in the recommended media: A-172 were grown in the ATCC-formulated DMEM (Merck, Darmstadt, Germany), whereas T98G and U-138 MG cell lines were grown in the ATCC-formulated EMEM (Merck, Darmstadt, Germany). These media were supplemented with FBS (Biowest, Nuaillé, France) to a final concentration of 10%, as well as antibiotics (penicillin and streptomycin) (Merck, Darmstadt, Germany) to the final concentrations of 1%. For the experiments, the amount of FBS was reduced to 5%. The medium for the T98G cell line was supplemented with 2 mM glutamine, 1% nonessential amino acids, and 1% sodium pyruvate (all purchased from Merck, Darmstadt, Germany).
In order to analyze the cytotoxicity of the analyzed lichen secondary metabolites, as well as to establish the appropriate concentrations for further analysis (allowing the survival of >70% of cells), we performed the MTT test. The procedure of the test was described previously. Briefly, the cells (10,000 cells per well) were seeded on the 96-well plates and left for 24 h. Afterwards, the analyzed compounds in the concentration range of 1 µM up to 100 µM were added to the cells and left for 48 h incubation. DMSO treated cells served as control. After the above-mentioned time, the cells were washed twice with warm PBS and incubated for 3 h in the presence of a fresh medium containing MTT salt (0.5 mg/mL). Then the formazan crystals were dissolved in acidic isopropanol. The absorbance was measured at 570 and 690 nm on a Tecan Infinite M200 microplate reader (Grödig, Austria). The experiments were repeated at least three times.

T98G cells [2] = test: Cell cycle distribution, flow cytometry, T98G; type: cell-based, human; conditions: 48 h
Procedure: (§1) Based on the MTT test, the lichen secondary metabolite concentrations allowing the survival of more than 70% of cells were chosen for the subsequent experiments. The compounds were added as follows: A-172 cells—atranorin 25 µM, caperatic acid 50 µM, physodic acid 25 µM, squamatic acid 25 µM, salazinic acid 50 µM, and lecanoric acid 100 µM; T98G cells—atranorin 50 µM, caperatic acid 100 µM, physodic acid 25 µM, squamatic acid 50 µM, salazinic acid 100 µM, and lecanoric acid 100 µM; U-138 MG cells—atranorin 25 µM, caperatic acid 50 µM, physodic acid 25 µM, squamatic acid 50 µM, salazinic acid 50 µM, and lecanoric acid 100 µM. As far as the TMZ treatment is concerned, it was added in the concentrations depending on the MGMT expression and methylation status, i.e., TMZ 30 µM was added to the A-172 cell line, and TMZ 100 µM was added to both the T98G and U-138 MG cell lines. In the case of the 2D culture, the cells were treated with the compounds 24 h after seeding, whereas, in regard to 3D culture, 5 days were needed to form spheroids. All subsequent analyses were performed 48 h after treatment.
The Muse Cell Cycle Kit and the Muse Cell Cycle Software (both Merck, Darmstadt, Germany) were used to quantitatively measure the percentage of cells in the G0/G1, S, and G2/M phases of the cell cycle. The assay utilizes the nuclear DNA intercalating stain propidium iodide and RNAse A in a formulation. Propiodium iodide discriminates cells at different stages of the cell cycle, based on differential DNA content, while the presence of RNAse increases the specificity of DNA staining. Briefly, the cells were seeded on 6-well plates (100,000 cells per well) and incubated for 24 h. Afterward, the lichen secondary metabolites were added to the concentrations chosen based on the MTT test, allowing >70% of cell survival. 0.5% DMSO and 100 nM topotecan were used as negative and positive controls, respectively. The analysis was performed after a 48 h incubation with lichen secondary metabolites and started with washing the cells with PBS, followed by cell fixation with ice-cold ethanol and overnight incubation at −20 °C. Following steps included cell re-washing with PBS, then a 30 min incubation in the dark with propiodium iodide-RNAse A formulation, and a final analysis on Muse™ Cell Analyzer (Merck, Darmstadt, Germany).

T98G cells [3] = test: Apoptosis, caspase-3/7 and 7-AAD flow cytometry, T98G; type: cell-based, human; conditions: 48 h, topotecan 100 nM
Procedure: as §1
The fluorescent-based analysis of apoptosis using Muse® Caspase-3/7 Kit was performed in order to analyze the percentage of live, early, and late apoptotic; total apoptotic; and dead cells in A-172, T98G, and U-138 MG GBM cells treated with lichen secondary metabolites. The principle of the method relies on the measurement of the activity of executioner caspases, i.e., caspase-3 and caspase-7, as well as analyzing the integrity of the cell membrane with the use of a dead cell marker 7-AAD. Cell seeding and treatment followed the same protocol as for cell cycle or ROS generation analysis, while the subsequent procedures were performed according to the manufacturer’s recommendations.

SMILES | Papp at 4 h, 24.75 µg/mL [1] | IC50 (U-138 MG cells) | number of cells in G0/G1 phases vs control (T98G cells [2]) | number of cells in S phase vs control (T98G cells [2]) | number of apoptotic cells vs control (T98G cells [3]) | Pe × 10^−6 (cm/s), class [1] | number of viable cells (U-138 MG cells; U-138 MG, 50 µM) | percentage of cells in G2/M phases vs control (T98G cells [2])
COC(=O)c1c(C)cc(OC(=O)c2c(C)cc(O)c(C=O)c2O)c(C)c1O [Atranorin] | 2.2 ± 0.1 ×10⁻⁶ cm/s | 47.8 ± 2.16 µM | slightly increased | reduced |  |  |  | 
CCCCCCCCCCCCCCC(C(=O)O)C(O)(CC(=O)OC)C(=O)O (centres unmarked) [Caperatic acid] | 5.2 ± 0.1 ×10⁻⁶ cm/s | > 100 µM | diminished |  |  |  |  | 
Cc1cc(OC(=O)c2c(C)cc(O)cc2O)cc(O)c1C(=O)O [Lecanoric acid] | 1.7 ± 0.2 ×10⁻⁶ cm/s | > 100 µM |  |  | significant increase; also recorded: induced apoptosis |  |  | 
Cc1cc(O)c(C=O)c2c1C(=O)Oc1c(CO)c(O)c3c(c1O2)C(O)OC3=O (centres unmarked) [Salazinic acid] |  | > 100 µM | slightly increased | reduced | significant increase; also recorded: induced apoptosis | np (np—classified as non-permeable (i.e., Pe < 0.5 × 10^−6 cm/s)) | significantly reduced the number of viable cells | diminished
COc1cc(C)c(C(=O)Oc2cc(C)c(C(=O)O)c(O)c2C)c(O)c1C(=O)O [Squamatic acid] | 0.5 ± 0.1 ×10⁻⁶ cm/s | > 100 µM |  |  | significant increase; also recorded: induced apoptosis |  |  | 
